Laboratory results from patent US9156831B2, “Chemical compounds” (ASTRAZENECA AB, priority 2013, dated 2015).

Columns and labels:
Test in all cases: Cell proliferation assay (MTS)
Type in all cases: cell-based, human
MCF7 = test system: MCF7
Method: (§1) The sensitivity of a panel of human cancer cell lines to the effects of compounds was determined in a standard proliferation assay.
(§2) Cells were plated in 96 well plates at densities of 1000-6000 cells per well in RPMI media containing 10% FBS. After incubation at 37° C. for 16 hours, various concentrations of compound were added to the assay plates. After incubation for an additional 72 h, the viable cells were determined by the addition of MTS reagent (Promega #3582) to each well for 2 h. MTS is a tetrazolium salt that is bioreduced by metabolically active cells in the presence of an electron coupling reagent to formazan. The formazan product was then quantitated by absorbance at 490 nm, as an indicator of the relative number of live cells. In order to determine the GI50 (concentration at which growth of cells was inhibited by 50%) the relative number of cells present at the time of drug addition was determined by comparison with the MTS readout before the drug was added, and this value was subtracted from the 72 hr value of untreated cells as a measure of cell growth during the assay.

MV411 = test system: MV411
Method: as §1, §2

HUPT4 = test system: HUPT4
Method: as §1, §2

VMCUB1 = test system: VMCUB1
Method: as §1, §2

CCK81 = test system: CCK81
Method: as §1, §2

SW948 = test system: SW948
Method: as §1, §2

SNU216 = test system: SNU216
Method: as §1
(§3) Cells were plated in 96 well plates at densities of 1000-6000 cells per well in RPMI media containing 10% FBS. After incubation at 37° C. for 16 hours, various concentrations of compound were added to the assay plates. After incubation for an additional 72 h, the viable cells were determined by the addition of MTS reagent (Promega #3582) to each well for 2 h. […] The formazan product was then quantitated by absorbance at 490 nm, as an indicator of the relative number of live cells. In order to determine the GI50 (concentration at which growth of cells was inhibited by 50%) the relative number of cells present at the time of drug addition was determined by comparison with the MTS readout before the drug was added, and this value was subtracted from the 72 hr value of untreated cells as a measure of cell growth during the assay.

C99 = test system: C99
Method: as §1, §2

2313287 = test system: 2313287
Method: (§4) The sensitivity of a panel of human cancer cell lines to the effects of compounds was determined in a standard proliferation assay. Cell lines were sourced through the AstraZeneca Cell Bank.
as §3

PNT1A = test system: PNT1A
Method: as §1, §2

H1975 = test system: H1975
Method: as §4, §2

HCC95 = test system: HCC95
Method: as §4, §2

HS766T = test system: HS766T
Method: as §4, §2

ZR751 = test system: ZR751
Method: as §4, §2

PC3 = test system: PC3
Method: as §1, §2

MOLM16 = test system: MOLM16
Method: as §1, §2

LUDLU1 = test system: LUDLU1
Method: as §1, §3

OE19 = test system: OE19
Method: as §1, §3

SNU354 = test system: SNU354
Method: as §1, §3

KG1 = test system: KG1
Method: as §1, §2

HEP3B = test system: HEP3B
Method: as §1, §2

HT1376 = test system: HT1376
Method: as §4, §2

LS180 = test system: LS180
Method: as §1, §3

QGY7703 = test system: QGY7703
Method: as §1, §2

CAPAN2 = test system: CAPAN2
Method: as §1, §3

CAMA1 = test system: CAMA1
Method: as §4, §2

SNU886 = test system: SNU886
Method: as §1, §3

SW480 = test system: SW480
Method: as §1, §3

SNU878 = test system: SNU878
Method: as §1, §2

WSUDLCL2 = test system: WSUDLCL2
Method: as §1, §3

LOVO = test system: LOVO
Method: as §1, §2

SNU5 = test system: SNU5
Method: as §1, §3

HCC1395 = test system: HCC1395
Method: as §1, §3

CMK = test system: CMK
Method: as §1, §2

CC20 = test system: CC20
Method: as §1, §2

H526 = test system: H526
Method: as §1, §2

H838 = test system: H838
Method: as §1, §2

HCT116 = test system: HCT116
Method: as §1, §2

MDAMB157 = test system: MDAMB157
Method: as §1, §2

MDAMB436 = test system: MDAMB436
Method: as §1, §2

RERFLCAI = test system: RERFLCAI
Method: as §1, §2

SKHEP1 = test system: SKHEP1
Method: as §1, §3

SMMC7721 = test system: SMMC7721
Method: as §1, §3

[1] = Homo sapiens, Colon, PIK3CA MUT
[2] = Homo sapiens, Blood/lymph, PIK3CA WT

CCn1nc(C2CCN(C(=O)CCO)CC2)nc1-c1cnc(N)c(-c2nnc(C(C)(C)C)o2)n1 [Example 3, 1-(4-(5-(5-amino-6-(5-tert-butyl-1,3,4-oxadiazol-2-yl)pyrazin-2-yl)-1-ethyl-1H-1,2,4-triazol-3-yl)piperidin-1-yl)-3-hydroxypropan-1-one]
Category (MCF7): Sensitive (sensitive (GI50<=1.0 μM)) | GI50 (MCF7; Homo sapiens, Breast, PIK3CA MUT): 0.309 µM | Category (MV411): Sensitive (sensitive (GI50<=1.0 μM)) | GI50 (MV411; Homo sapiens, MV4-11, Blood/lymph, PIK3CA WT): 0.382 µM | Category (HUPT4): Sensitive (sensitive (GI50<=1.0 μM)) | GI50 (HUPT4; Homo sapiens, HuP-T4, Pancreas, PIK3CA WT): 0.641 µM | Category (VMCUB1): Sensitive (sensitive (GI50<=1.0 μM)) | GI50 (VMCUB1; Homo sapiens, VM-CUB-1, Bladder, PIK3CA MUT): 0.732 µM | Category (CCK81): Sensitive (sensitive (GI50<=1.0 μM)) | GI50 (CCK81; [1]): 0.803 µM | Category (SW948): Sensitive (sensitive (GI50<=1.0 μM)) | GI50 (SW948; [1]): 0.911 µM | Category (SNU216): Resistant (resistant (GI50>1.0 μM)) | GI50 (SNU216; Homo sapiens, SNU-216, Stomach, PIK3CA WT): 1.07 µM | Category (C99): Resistant (resistant (GI50>1.0 μM)) | GI50 (C99; Homo sapiens, Colon, PIK3CA WT): 1.22 µM | Category 2313287: Resistant (resistant (GI50>1.0 μM)) | GI50 (2313287; Homo sapiens, Stomach, PIK3CA WT): 1.34 µM | Category (PNT1A): Resistant (resistant (GI50>1.0 μM)) | GI50 (PNT1A; Homo sapiens, Prostate, PIK3CA WT): 2.17 µM | Category (H1975): Resistant (resistant (GI50>1.0 μM)) | GI50 (H1975; Homo sapiens, NCI-H1975, Lung, PIK3CA MUT): 2.26 µM | Category (HCC95): Resistant (resistant (GI50>1.0 μM)) | GI50 (HCC95; Homo sapiens, Lung, PIK3CA WT): 3.11 µM | Category (HS766T): Resistant (resistant (GI50>1.0 μM)) | GI50 (HS766T; Homo sapiens, Pancreas, PIK3CA WT): 3.47 µM | Category (ZR751): Resistant (resistant (GI50>1.0 μM)) | GI50 (ZR751; Homo sapiens, ZR-75-1, Breast, PIK3CA WT): 3.56 µM | Category (PC3): Resistant (resistant (GI50>1.0 μM)) | GI50 (PC3; Homo sapiens, PC-3, Prostate, PIK3CA WT): 3.83 µM | Category (MOLM16): Resistant (resistant (GI50>1.0 μM)) | GI50 (MOLM16; [2]): 4.6 µM | Category (LUDLU1): Resistant (resistant (GI50>1.0 μM)) | GI50 (LUDLU1; Homo sapiens, LUDLU-1, Lung, PIK3CA WT): 4.65 µM | Category (OE19): Resistant (resistant (GI50>1.0 μM)) | GI50 (OE19; Homo sapiens, Esophagus, PIK3CA WT): 5.13 µM | Category (SNU354): Resistant (resistant (GI50>1.0 μM)) | GI50 (SNU354; Homo sapiens, SNU-354, Liver, PIK3CA WT): 5.6 µM | Category (KG1): Resistant (resistant (GI50>1.0 μM)) | GI50 (KG1; Homo sapiens, KG-1, Blood/lymph, PIK3CA WT): 6.59 µM | Category (HEP3B): Resistant (resistant (GI50>1.0 μM)) | GI50 (HEP3B; Homo sapiens, Liver, PIK3CA WT): 6.69 µM | Category (HT1376): Resistant (resistant (GI50>1.0 μM)) | GI50 (HT1376; Homo sapiens, HT-1376, Bladder, PIK3CA WT): 8.2 µM | Category (LS180): Resistant (resistant (GI50>1.0 μM)) | GI50 (LS180; [1]): 9.94 µM | Category (QGY7703): Resistant (resistant (GI50>1.0 μM)) | GI50 (QGY7703; Homo sapiens, QGY-7703, Liver, PIK3CA WT): 11.1 µM | Category (CAPAN2): Resistant (resistant (GI50>1.0 μM)) | GI50 (CAPAN2; Homo sapiens, Capan-2, Pancreas, PIK3CA WT): 13.4 µM | Category (CAMA1): Resistant (resistant (GI50>1.0 μM)) | GI50 (CAMA1; Homo sapiens, CAMA-1, Breast, PIK3CA WT): 15.5 µM | Category (SNU886): Resistant (resistant (GI50>1.0 μM)) | GI50 (SNU886; Homo sapiens, SNU-886, Liver, PIK3CA WT): 15.6 µM | Category (SW480): Resistant (resistant (GI50>1.0 μM)) | GI50 (SW480; Homo sapiens, Colon, PIK3CA WT): 15.9 µM | Category (SNU878): Resistant (resistant (GI50>1.0 μM)) | GI50 (SNU878; Homo sapiens, Liver, PIK3CA WT): 16.1 µM | Category (WSUDLCL2): Resistant (resistant (GI50>1.0 μM)) | GI50 (WSUDLCL2; [2]): 17.7 µM | Category (LOVO): Resistant (resistant (GI50>1.0 μM)) | GI50 (LOVO; Homo sapiens, Colon, PIK3CA WT): 18.6 µM | Category (SNU5): Resistant (resistant (GI50>1.0 μM)) | GI50 (SNU5; Homo sapiens, SNU-5, Stomach, PIK3CA WT): 21.2 µM | Category (HCC1395): Resistant (resistant (GI50>1.0 μM)) | GI50 (HCC1395; Homo sapiens, Breast, PIK3CA WT): 21.8 µM | Category (CMK): Resistant (resistant (GI50>1.0 μM)) | GI50 (CMK; [2]): 28.9 µM | Category (CC20): Resistant (resistant (GI50>1.0 μM)) | GI50 (CC20; Homo sapiens, Colon, PIK3CA WT): 30 µM | Category (H526): Resistant (resistant (GI50>1.0 μM)) | GI50 (H526; Homo sapiens, NCI-H526, Lung, PIK3CA WT): 30 µM | Category (H838): Resistant (resistant (GI50>1.0 μM)) | GI50 (H838; Homo sapiens, NCI-H838, Lung, PIK3CA WT): 30 µM | Category (HCT116): Resistant (resistant (GI50>1.0 μM)) | GI50 (HCT116; Homo sapiens, HCT-116, Colon, PIK3CA MUT): 30 µM | Category (MDAMB157): Resistant (resistant (GI50>1.0 μM)) | GI50 (MDAMB157; Homo sapiens, MDA-MB-157, Breast, PIK3CA WT): 30 µM | Category (MDAMB436): Resistant (resistant (GI50>1.0 μM)) | GI50 (MDAMB436; Homo sapiens, MDA-MB-436, Breast, PIK3CA WT): 30 µM | GI50 (RERFLCAI; Homo sapiens, Lung, PIK3CA WT): 30 µM | Category (RERFLCAI; RERFLCAI): Resistant (resistant (GI50>1.0 μM)) | Category (SKHEP1): Resistant (resistant (GI50>1.0 μM)) | GI50 (SKHEP1; Homo sapiens, SK-HEP1, Liver, PIK3CA WT): 30 µM | Category (SMMC7721): Resistant (resistant (GI50>1.0 μM)) | GI50 (SMMC7721; Homo sapiens, SMMC-7721, Liver, PIK3CA WT): 30 µM
